Legend:
[1] = molecular target: T1, CBP/γ-catenin interaction (Mus musculus, UniProt P45481); test: Co-IP of bone marrow Sca-1posit cells from treated mice (anti-CBP); assay type: in vivo; details: YH250 2 mg/kg subcutaneously, 24 hrs
T1 construct: bone marrow Sca-1posit cells were isolated with Anti-Sca-1 microbeads; from tissue; host or cells: bone marrow Sca-1 positive cells of female C57/Black mice dosed in vivo
Description: YH250 was used in this study. Female C57/Black mice were administrated with either DMSO (solvent control) or YH250 (2 mg/kg) subcutaneously. 24 hrs later, bone marrow Sca-1posit cells were isolated with Anti-Sca-1 microbeads (Miltenyi Biotec, Cat#130-092-529) for co-immunoprecipitation (FIG. 4A). Cells were then lysed and incubated with either anti-CBP (A22) or anti-p300 (C20) antibodies. Then, the immunoprecipitation complex were electrophoresed and detected with antibodies to either β-catenin or γ-catenin. […] This confirms that YH250 directly disrupts the p300/catenin interaction thereby enhancing the CBP/catenin interaction in HSPCs.

[2] = tested on: Axin2 and survivin (Birc5) gene expression; test: qPCR gene expression in bone marrow Sca-1posit cells of treated mice; assay type: in vivo, mouse; details: 2 mg/kg overnight, Sca-1+ population
Description: Axin2 is a classical Wnt/catenin target genes and plays important regulatory roles in Wnt signaling. The inhibitor of apoptosis (IAP) family member survivin (Birc5) is another Wnt/catenin target gene. […] To study YH250 effects in bone marrow stem cell population gene expression, female C57/Black mice were treated with DMSO or YH250 (2 mg/kg) overnight and bone marrow Sca-1posit cells were isolated. Then, total RNA were extracted for cDNA synthesis and qPCR assay (FIG. 5A). As shown in FIGS. 5B-5C, both Axin2 and survivin gene expression were up regulated by YH250 in the Sca-1^+ population of the treated animals.

[3] = tested on: mouse bone marrow cells; test: Colony-forming cell (CFC) assay after 4 h in vitro treatment; assay type: cell-based
Description: Brief (less than 24 hours) treatment of HSC with YH250 or DMSO was conducted before the CFC or CFU-S12 assay. Mouse bone marrow cells were treated with DMSO (solvent control) or YH250 for 4 hours in serum free HSC expansion medium before the cells were recovered for a colony forming assay. 7-8 Days after cell plating in methylcellulose medium (Stemcell Technologies, Methocult GF M3434, Cat#3434), colonies were scored, and the cells from each plate were recovered and counted.
In fact, they also show similar biological functions with respect to HSPC.

[4] = 4 hours incubation then CFC assay

T1 sequence (P45481 2-2441 limits assumed): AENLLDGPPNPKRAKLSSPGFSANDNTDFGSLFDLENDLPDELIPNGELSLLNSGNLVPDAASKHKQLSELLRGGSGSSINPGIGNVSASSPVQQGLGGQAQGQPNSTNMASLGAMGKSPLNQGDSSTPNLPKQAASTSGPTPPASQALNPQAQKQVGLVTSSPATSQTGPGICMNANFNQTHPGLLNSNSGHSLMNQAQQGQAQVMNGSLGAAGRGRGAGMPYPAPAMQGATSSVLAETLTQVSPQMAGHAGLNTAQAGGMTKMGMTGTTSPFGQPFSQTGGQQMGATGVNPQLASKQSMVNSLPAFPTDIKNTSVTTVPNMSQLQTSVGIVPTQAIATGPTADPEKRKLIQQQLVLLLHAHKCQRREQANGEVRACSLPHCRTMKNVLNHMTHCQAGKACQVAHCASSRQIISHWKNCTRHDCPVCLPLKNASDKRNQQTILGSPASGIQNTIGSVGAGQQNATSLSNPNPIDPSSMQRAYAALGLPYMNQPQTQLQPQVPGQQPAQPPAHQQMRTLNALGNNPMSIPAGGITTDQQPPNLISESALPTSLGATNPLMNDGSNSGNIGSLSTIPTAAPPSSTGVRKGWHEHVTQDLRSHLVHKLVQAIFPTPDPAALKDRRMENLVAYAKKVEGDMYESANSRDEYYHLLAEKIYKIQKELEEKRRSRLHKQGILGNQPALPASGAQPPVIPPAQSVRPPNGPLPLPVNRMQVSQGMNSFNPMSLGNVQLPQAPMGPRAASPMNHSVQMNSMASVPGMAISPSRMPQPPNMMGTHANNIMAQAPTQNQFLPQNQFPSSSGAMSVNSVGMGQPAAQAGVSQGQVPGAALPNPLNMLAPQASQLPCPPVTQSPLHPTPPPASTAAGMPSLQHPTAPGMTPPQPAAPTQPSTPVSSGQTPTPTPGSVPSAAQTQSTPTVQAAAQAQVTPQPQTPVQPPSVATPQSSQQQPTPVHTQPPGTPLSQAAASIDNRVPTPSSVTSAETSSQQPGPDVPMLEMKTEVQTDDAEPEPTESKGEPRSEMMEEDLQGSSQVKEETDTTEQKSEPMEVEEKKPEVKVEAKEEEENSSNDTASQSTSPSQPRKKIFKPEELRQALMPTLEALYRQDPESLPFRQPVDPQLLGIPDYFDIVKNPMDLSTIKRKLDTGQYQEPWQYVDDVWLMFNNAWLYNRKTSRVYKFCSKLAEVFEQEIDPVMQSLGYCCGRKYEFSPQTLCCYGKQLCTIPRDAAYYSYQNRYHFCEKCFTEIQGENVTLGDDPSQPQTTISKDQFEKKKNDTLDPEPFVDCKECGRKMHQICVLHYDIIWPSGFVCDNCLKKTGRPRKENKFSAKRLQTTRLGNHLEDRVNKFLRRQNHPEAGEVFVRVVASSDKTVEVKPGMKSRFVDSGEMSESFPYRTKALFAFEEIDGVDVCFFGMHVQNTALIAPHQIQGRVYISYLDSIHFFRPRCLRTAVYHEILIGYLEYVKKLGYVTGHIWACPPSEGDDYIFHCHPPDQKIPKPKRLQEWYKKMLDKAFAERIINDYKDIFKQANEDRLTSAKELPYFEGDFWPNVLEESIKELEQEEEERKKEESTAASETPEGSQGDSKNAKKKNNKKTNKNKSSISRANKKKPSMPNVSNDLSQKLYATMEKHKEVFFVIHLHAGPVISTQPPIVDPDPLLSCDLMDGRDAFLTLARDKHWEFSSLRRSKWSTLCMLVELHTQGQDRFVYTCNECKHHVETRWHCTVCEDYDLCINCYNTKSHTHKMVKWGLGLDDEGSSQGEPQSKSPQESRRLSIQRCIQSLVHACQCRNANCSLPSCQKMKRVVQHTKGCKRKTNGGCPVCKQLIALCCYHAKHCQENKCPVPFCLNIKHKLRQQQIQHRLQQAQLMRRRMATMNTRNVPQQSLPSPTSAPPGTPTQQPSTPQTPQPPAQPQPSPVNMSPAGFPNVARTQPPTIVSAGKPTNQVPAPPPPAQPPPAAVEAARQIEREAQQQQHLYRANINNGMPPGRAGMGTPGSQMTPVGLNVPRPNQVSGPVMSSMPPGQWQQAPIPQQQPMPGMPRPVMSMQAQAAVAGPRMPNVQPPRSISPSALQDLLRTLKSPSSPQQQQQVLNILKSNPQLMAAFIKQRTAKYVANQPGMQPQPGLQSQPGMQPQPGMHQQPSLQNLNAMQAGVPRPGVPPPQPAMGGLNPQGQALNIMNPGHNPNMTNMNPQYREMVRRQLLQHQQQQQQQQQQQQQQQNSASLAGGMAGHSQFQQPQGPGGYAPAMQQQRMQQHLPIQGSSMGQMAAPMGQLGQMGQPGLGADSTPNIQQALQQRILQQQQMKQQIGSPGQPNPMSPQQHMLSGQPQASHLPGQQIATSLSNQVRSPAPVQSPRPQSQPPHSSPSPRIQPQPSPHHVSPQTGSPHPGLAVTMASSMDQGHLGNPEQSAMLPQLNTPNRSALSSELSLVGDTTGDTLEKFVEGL

Q: Which CBP/γ-catenin interaction [1] does the source give for `COc1cccc(CNC(=O)N2C3CN(Cc4cc(Cl)cc(Cl)c4N(C)C)C(=O)[C@H](Cc4ccc(O)cc4)N3C(=O)CN2C)c1OC` (stereo partly shown) [YH250] here?
A: promotes CBP/γ-catenin interaction

Q: What about the Axin2 gene expression [2] of the same compound?
A: up regulated

Q: What about the survivin gene expression [2] of the same compound?
A: up regulated

Q: And the “CELL#/plate” value [3, 4]?
A: 9.5 × 10^5

Q: What about the “CFC#/plate” value [3, 4] of the same compound?
A: 29

Q: What about the “CFC colony number vs DMSO” value ([3]; 4 hours treatment, serum free medium, scored 7-8 days after plating) of the same compound?
A: not significantly different

Q: And the “cell number in each plate vs DMSO” value ([3]; 4 hours treatment, cells recovered from plate)?
A: increased cell number in each plate

From patent US20190125753A1, “COMPOUNDS AND METHODS FOR INCREASING HEMATOPOIESIS” (University of Southern California, priority 2016, published 2019)
